Measured values reported in US10357481B2 (MERCK SHARP & DOHME CORP., priority 2015, dated 2019).
Like-named read-outs stand apart in the source and are kept apart here.

Legend:
Rhesus PDE2A3 = biological target: T1, Rhesus PDE2A3 (Macaca mulatta, UniProt B3VTJ2); assay: PDE2 fluorescence polarization (IMAP FP) inhibition assay, rhesus PDE2A3; type: biochemical, rhesus macaque
T1 construct: made in house; host or cells: AD293 cells, transiently transfected with pcDNA3.3-TOPO; lysate supernatant used
T1 sequence (B3VTJ2 1-941): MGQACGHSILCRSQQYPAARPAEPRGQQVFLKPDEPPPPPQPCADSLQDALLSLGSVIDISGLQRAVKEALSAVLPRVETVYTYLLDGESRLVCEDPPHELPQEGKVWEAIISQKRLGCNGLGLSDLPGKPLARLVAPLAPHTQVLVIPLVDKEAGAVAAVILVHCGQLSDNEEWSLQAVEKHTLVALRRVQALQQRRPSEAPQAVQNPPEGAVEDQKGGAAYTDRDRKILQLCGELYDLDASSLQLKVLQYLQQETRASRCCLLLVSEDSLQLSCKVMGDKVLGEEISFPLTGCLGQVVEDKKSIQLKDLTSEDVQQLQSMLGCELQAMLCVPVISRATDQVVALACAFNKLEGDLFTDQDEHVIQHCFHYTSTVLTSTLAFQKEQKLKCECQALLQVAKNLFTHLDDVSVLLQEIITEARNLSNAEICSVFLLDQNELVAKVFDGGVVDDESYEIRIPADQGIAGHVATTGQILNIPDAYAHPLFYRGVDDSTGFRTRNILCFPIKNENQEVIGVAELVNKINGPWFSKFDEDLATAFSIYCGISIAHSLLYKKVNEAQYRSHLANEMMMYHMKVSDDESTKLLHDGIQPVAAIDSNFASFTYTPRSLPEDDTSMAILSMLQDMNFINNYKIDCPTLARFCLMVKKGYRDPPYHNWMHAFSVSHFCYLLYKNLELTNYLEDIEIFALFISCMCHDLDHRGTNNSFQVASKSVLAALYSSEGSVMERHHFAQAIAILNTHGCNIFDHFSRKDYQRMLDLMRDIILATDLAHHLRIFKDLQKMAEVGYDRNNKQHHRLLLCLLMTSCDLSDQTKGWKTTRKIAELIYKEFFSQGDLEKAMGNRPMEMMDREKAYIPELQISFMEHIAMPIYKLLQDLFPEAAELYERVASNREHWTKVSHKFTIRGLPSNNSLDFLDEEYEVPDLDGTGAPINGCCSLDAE
Protocol: The activity of the compounds in accordance with the present invention as PDE2 inhibitors may be readily determined using a fluorescence polarization (FP) methodology (Huang, W., et al., J. Biomol Screen, 2002, 7: 215).
In a typical experiment the PDE2 inhibitory activity of the compounds of the present invention was determined in accordance with the following experimental method. Rhesus PDE2A3 was amplified from rhesus macaque brain cDNA (Biochain Institute, Hayward, Calif.) using primers based on human PDE2A sequence (accession NM_002599.3) where the forward primer containing a Kozak consensus was 5′-[…]-3′ and the reverse primer was 5′-[…]-3′. Amplification with Easy-A High-Fidelity PCR cloning enzyme (Stratagene, La Jolla, Calif.) was 95° C. for 2 minutes followed by thirty three cycles of 95° C. for 40 seconds, 52° C. for 30 seconds, and 72° C. for 2 minutes 48 seconds. Final extension was 72° C. for 7 minutes. The PCR product was TA cloned into pcDNA3.3-TOPO (Invitrogen, Carlsbad, Calif.) aaccording to standard protocol. A consensus sequence was developed from multiple clones and then deposited into GenBank (EU812167). AD293 cells (Stratagene, La Jolla, Calif.) with 70-80% confluency were transiently transfected with rhesus PDE2A3/pcDNA3.3-TOPO using Lipofectamine 2000 according to manufacturer specifications (Invitrogen, Carlsbad, Calif.). Cells were harvested 48 hours post-transfection and lysed by sonication (setting 3, 10×5 sec pulses) in a buffer containing 20 mM HEPES pH 7.4, 1 mM EDTA and Complete Protease Inhibitor Cocktail Tablets (Roche, Indianapolis, Ind.). Lysate was collected by centrifugation at 75,000×g for 20 minutes at 4° C. and supernatant utilized for evaluation of PDE2 activity. The fluorescence polarization assay for cyclic nucleotide phosphodiesterases was performed using an IMAP® FP kit supplied by Molecular Devices, Sunnyvale, Calif. (product # R8139). […] Assays were performed at room temperature in 384-well microtiter plates with an incubation volume of 20.2 μL. Solutions of test compounds were prepared in DMSO and serially diluted with DMSO to yield 8 μL of each of 10 solutions differing by 3-fold in concentration, at 32 serial dilutions per plate. […] 0% of inhibition is determined by using DMSO (1% final concentrations).
A Labcyte Echo 555 (Labcyte, Sunnyvale, Calif.) is used to dispense 200 nL from each well of the titration plate to the 384 well assay plate. Ten microliters of a solution of enzyme (1/2000 final dilution from aliquots; sufficient to produce 20% substrate conversion) was added to the assay plate. Next 10 uL of a separate solution of the substrate FAM-labeled cAMP (50 nM final concentration product # R7506 from Molecular Devices) and the activator cGMP (1 uM final concentration), prepared in the assay buffer (10 mM Tris HCl, pH 7.2, 10 mM MgCl2, 0.05% NaN3 0.01% Tween-20, and 1 mM DTT) was added to the assay plate and shaken to mix. The reaction is allowed to proceed at room temperature for 60 minutes. A binding solution is then made from the kit components, comprised of 80% Solution A, 20% Solution B and binding reagent at a volume of 1/600 the total binding solution. The enzymatic reaction is stopped by addition of 60 μL of the binding solution to each well of the assay plates and the plates are sealed and shaken for 30 seconds. The plate was incubated at room temperature for at least one hour prior to determining the fluorescence polarization (FP). The parallel and perpendicular fluorescence of each well of the plate was measured using a Tecan Genios Pro plate reader (Tecan, Switzerland) or Perkin Elmer EnVision™ plate reader (Waltham, Mass.). Fluorescence polarization (mP) was calculated from the parallel (S) and perpendicular (P) fluorescence of each sample well and the analogous values for the median control well, containing only substrate (So and Po), using the following equation: Polarization (mP)=1000*(S/So−P/Po)/(S/So+P/Po).

human PDE2A1 = biological target: T2, human PDE2A1 (Homo sapiens, UniProt O00408); assay: IMAP FP PDE selectivity panel, human PDE2A1; type: biochemical
T2 construct: GST; purchased BPS Bioscience (San Diego, Calif.) 60020; host or cells: insect cells
T2 sequence (O00408 1-920 isoform O00408-2): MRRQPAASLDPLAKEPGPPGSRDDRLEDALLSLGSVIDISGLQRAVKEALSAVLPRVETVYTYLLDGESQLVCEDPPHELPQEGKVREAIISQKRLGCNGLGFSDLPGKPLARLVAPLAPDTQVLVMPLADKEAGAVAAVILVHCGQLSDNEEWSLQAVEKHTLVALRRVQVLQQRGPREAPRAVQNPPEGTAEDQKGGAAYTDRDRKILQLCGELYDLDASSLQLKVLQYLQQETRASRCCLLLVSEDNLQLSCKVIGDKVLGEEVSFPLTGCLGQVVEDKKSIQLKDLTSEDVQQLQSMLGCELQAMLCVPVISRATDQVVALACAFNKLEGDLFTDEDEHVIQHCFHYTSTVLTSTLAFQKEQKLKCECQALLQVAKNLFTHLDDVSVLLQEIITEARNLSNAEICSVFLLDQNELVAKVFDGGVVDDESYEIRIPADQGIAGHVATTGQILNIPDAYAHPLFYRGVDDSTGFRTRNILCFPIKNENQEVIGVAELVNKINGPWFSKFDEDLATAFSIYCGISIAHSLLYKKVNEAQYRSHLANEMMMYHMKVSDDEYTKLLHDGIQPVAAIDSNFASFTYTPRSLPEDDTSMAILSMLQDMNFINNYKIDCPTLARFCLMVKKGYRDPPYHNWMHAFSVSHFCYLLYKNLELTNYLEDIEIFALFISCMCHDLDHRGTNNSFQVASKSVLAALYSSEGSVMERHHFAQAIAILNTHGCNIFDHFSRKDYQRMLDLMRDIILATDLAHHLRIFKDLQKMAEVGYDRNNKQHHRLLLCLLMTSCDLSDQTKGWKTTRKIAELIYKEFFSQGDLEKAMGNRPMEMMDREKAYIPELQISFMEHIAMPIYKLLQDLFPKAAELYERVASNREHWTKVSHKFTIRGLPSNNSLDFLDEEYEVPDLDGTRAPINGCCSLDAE
In short: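 Human PDE2A1 tested alongside PDE1–11 by IMAP fluorescence polarization at room temperature. Substrate was 50 nM FAM-cAMP plus 1000 nM cGMP, buffer pH 7.2 with MgCl2 and DTT, enzyme set for 20% conversion. Ten 3-fold compound dilutions; 60 min reaction, then IMAP binding solution, 1 h, parallel/perpendicular fluorescence read.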

other PDE isoforms = settings: reported in Annual Reports in Medicinal Chemistry 42: 4-5, 2007; cited from earlier work
[1] = reported in Annual Reports in Medicinal Chemistry 42: 4-5, 2007; cited from earlier work
[2] = Lab B, read-out: Rhesus PDE2 Ki (nM) Lab B
[3] = Lab A, read-out: Rhesus PDE2 Ki (nM) Lab A

For `Cc1cc(N[C@@H](c2ccc(OC(F)(F)F)c(F)c2)C(C)(C)O)n2ncnc2n1` (single isomer, unassigned) [Example 92], the Ki (Rhesus PDE2A3; [2]) was 6.8 nM and the Ki (human PDE2A1; Human PDE2 Ki (nM) Lab B) was 5.4 nM.
With `Cc1cc(NC(c2ccc(S(F)(F)(F)(F)F)cc2)C(C)(C)O)n2ncnc2n1` (single isomer, unassigned) [Example 117, (1R or S)-2-Methyl-1-[(5-methyl[1,2,4]triazolo[1,5-a]pyrimidin-7-yl)amino]-1-[4-(pentafluoro-λ^6-sulfanyl)phenyl] propan-2-ol] the Ki (Rhesus PDE2A3; [2]) was 5.6 nM and the Ki (human PDE2A1; Human PDE2 Ki (nM) Lab B) was 4.6 nM.
For `COc1ccc(Cc2nn3c([C@@H](CCCc4ccccc4)[C@@H](C)O)nc(C)c3c(=O)[nH]2)cc1OC` [BAY 60-7550], the “potency at other PDE isoforms” value (other PDE isoforms) is given as “significant potency” and the brain penetration [1] is given as “limited”.
In the case of `Cc1cc(NC2(c3ccc(C(F)(F)F)cc3)CC2)n2ncnc2n1` [Example 56, 5-Methyl-N-{1-[4-(trifluoromethyl)phenyl]cyclopropyl}[1,2,4]triazolo[1,5-a]pyrimidin-7-amine], the Ki (Rhesus PDE2A3; [2]) is reported as 61 nM and the Ki (human PDE2A1; Human PDE2 Ki (nM) Lab B) is reported as 79 nM.
In the case of `Cc1cc(NC2(c3ccc(C(F)(F)F)c(F)c3)CC2)n2ncnc2n1` [Example 57, N-{1-[3-Fluoro-4-(trifluoromethyl)phenyl]cyclopropyl}-5-methyl [1,2,4]triazolo[1,5-a]pyrimidin-7-amine], the Ki (Rhesus PDE2A3; [2]) is reported as 22 nM and the Ki (human PDE2A1; Human PDE2 Ki (nM) Lab B) is reported as 21 nM.
`CCc1cc(NC2(c3ccc(C(F)(F)F)c(F)c3)CC2)n2ncnc2n1` [Example 68, 5-Ethyl-N-{1-[3-fluoro-4-(trifluoromethyl)phenyl]cyclopropyl}[1,2,4]triazolo[1,5-a]pyrimidin-7-amine] showed a Ki (Rhesus PDE2A3) of 29 nM and a Ki (human PDE2A1; Lab B, read-out: Human PDE2 Ki (nM) Lab B) of 35 nM.
Work on `CC(Nc1ccnc2ncnn12)c1ccc(C(F)(F)F)cc1` (stereo not shown) [Example 83, N-{1-[4-(Trifluoromethyl)phenyl]ethyl}[1,2,4]triazolo[1,5-a]pyrimidin-7-amine] yielded a Ki (Rhesus PDE2A3; [3]) of 4680 nM.
For `CC(Nc1ccnc2ncnn12)c1ccc(OC(F)(F)F)cc1` (stereo not shown) [Example 84, N-{1-[4-(Trifluoromethoxy)phenyl]ethyl}[1,2,4]triazolo[1,5-a]pyrimidin-7-amine], the Ki (Rhesus PDE2A3; [3]) was 2770 nM.
Compound `Cc1cc(N[C@@H](c2ccc(C(F)(F)F)c(F)c2)C(C)(C)O)n2ncnc2n1` [Example 98, (1S)-1-[3-Fluoro-4-(trifluoromethyl)phenyl]-2-methyl-1-[(5-methyl [1,2,4]triazolo[1,5-a]pyrimidin-7-yl)amino]propan-2-ol] has a Ki (Rhesus PDE2A3; [2]) of 12 nM and a Ki (human PDE2A1; Human PDE2 Ki (nM) Lab B) of 10 nM.
